Experimental data reported in ChEMBL document CHEMBL1139385, “Structural analysis of ARC-type inhibitor (ARC-1034) binding to protein kinase A catalytic subunit and rational design of bisubstrate analogue inhibitors of basophilic protein kinases” (J Med Chem, 2009).

Legend:
[1] = molecular target: RAC-gamma serine/threonine-protein kinase (Homo sapiens, UniProt Q9Y243); assay: Inhibition of PKBgamma using 100 uM ATP and 30 uM TAMRA-kemptide substrate by fluorometric TLC assay
[2] = molecular target: T1, cAMP-dependent protein kinase catalytic subunit alpha (Homo sapiens, UniProt P17612); assay: Inhibition of PKA catalytic subunit alpha using 100 uM ATP and 30 uM TAMRA-kemptide substrate by fluorometric TLC assay
[3] = molecular target: Rho-associated protein kinase 2 (Bos taurus) (UniProt Q28021); assay: Binding affinity to ROCK2 by fluorescence polarization assay
Rho-associated protein kinase 2 (Bos taurus), sequence (Q28021 whole entry, looked up): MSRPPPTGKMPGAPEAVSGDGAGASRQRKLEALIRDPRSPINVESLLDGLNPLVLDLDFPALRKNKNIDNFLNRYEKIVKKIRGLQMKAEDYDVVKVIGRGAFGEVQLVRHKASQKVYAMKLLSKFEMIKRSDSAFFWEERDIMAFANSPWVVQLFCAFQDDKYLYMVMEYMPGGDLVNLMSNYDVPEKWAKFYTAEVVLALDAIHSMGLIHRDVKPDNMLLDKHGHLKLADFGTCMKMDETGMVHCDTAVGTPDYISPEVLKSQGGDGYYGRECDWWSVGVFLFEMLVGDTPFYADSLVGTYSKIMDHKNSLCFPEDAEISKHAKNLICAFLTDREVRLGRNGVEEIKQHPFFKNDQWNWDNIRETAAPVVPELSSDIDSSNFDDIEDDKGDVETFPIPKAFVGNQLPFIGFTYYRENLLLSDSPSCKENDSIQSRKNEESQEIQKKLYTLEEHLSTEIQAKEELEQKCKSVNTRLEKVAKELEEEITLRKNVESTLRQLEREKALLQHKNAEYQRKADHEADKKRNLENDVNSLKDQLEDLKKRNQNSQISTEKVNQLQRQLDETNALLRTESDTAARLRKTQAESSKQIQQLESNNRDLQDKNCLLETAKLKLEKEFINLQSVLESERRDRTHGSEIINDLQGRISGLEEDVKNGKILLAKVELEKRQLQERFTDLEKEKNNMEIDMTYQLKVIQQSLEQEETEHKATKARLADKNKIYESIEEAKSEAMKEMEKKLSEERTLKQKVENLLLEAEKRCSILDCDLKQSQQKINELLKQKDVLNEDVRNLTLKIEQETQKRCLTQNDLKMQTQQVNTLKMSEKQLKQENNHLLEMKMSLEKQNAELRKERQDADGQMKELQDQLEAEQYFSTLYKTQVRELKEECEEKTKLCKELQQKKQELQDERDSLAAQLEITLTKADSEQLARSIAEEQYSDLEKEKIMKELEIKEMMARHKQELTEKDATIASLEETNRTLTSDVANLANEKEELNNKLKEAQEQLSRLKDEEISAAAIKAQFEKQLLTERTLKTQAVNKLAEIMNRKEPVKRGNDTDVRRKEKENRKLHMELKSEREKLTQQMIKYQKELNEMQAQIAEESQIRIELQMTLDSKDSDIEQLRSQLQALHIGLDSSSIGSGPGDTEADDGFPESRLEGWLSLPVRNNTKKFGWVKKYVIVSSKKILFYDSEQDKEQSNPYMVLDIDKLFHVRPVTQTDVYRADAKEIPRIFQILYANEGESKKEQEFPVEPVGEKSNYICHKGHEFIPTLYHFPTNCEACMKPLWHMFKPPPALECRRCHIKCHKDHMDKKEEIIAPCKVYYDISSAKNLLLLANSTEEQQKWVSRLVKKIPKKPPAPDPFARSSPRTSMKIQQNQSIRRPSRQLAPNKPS

[4] = molecular target: T1, cAMP-dependent protein kinase catalytic subunit alpha; assay: Binding affinity to PKA catalytic subunit alpha by fluorescence polarization assay

RAC-gamma serine/threonine-protein kinase, sequence (Q9Y243 whole entry): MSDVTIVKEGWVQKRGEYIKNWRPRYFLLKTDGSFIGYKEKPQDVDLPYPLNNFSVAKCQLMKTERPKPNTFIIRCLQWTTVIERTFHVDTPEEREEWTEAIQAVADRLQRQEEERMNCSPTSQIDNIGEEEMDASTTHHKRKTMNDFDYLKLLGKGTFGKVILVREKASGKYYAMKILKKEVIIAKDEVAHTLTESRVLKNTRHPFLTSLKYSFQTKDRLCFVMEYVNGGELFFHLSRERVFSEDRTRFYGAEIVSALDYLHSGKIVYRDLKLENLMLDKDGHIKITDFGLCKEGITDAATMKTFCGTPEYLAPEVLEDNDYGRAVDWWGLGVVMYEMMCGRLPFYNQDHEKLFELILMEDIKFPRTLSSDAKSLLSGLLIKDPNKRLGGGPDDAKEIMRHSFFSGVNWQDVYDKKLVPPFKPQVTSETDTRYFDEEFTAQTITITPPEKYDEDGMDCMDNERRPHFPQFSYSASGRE

IC50 [1] [µM]	IC50 [2] [µM]	Kd [3] [µM]	SMILES	Kd [4] [µM]
0.774	0.054	0.0014	NCCCC[C@@H](NC(=O)CCCCCNC(=O)[C@H]1O[C@@H](n2cnc3c(N)ncnc32)[C@H](O)[C@@H]1O)C(=O)NCCCCCC(=O)N[C@H](CCCN=C(N)N)C(=O)N[C@H](CCCN=C(N)N)C(N)=O	0.0076
–	–	–	NCCCC[C@H](NC(=O)CCCCCNC(=O)[C@H]1O[C@@H](n2cnc3c(N)ncnc32)[C@H](O)[C@@H]1O)C(=O)NCCCCCC(=O)N[C@H](CCCN=C(N)N)C(=O)N[C@H](CCCN=C(N)N)C(N)=O	0.594
–	–	–	NC(=O)[C@@H](CCCN=C(N)N)NC(=O)[C@@H](CCCN=C(N)N)NC(=O)CCCCCNC(=O)CCCCCNC(=O)[C@H]1O[C@@H](n2cnc3c(N)ncnc32)[C@H](O)[C@@H]1O	0.083
–	–	–	NC(=O)[C@H](Cc1ccc(C(=O)c2ccccc2)cc1)NC(=O)CCCCCNC(=O)[C@H]1O[C@@H](n2cnc3c(N)ncnc32)[C@H](O)[C@@H]1O	> 100
–	–	–	NC(=O)[C@@H](Cc1ccc(C(=O)c2ccccc2)cc1)NC(=O)CCCCCNC(=O)[C@H]1O[C@@H](n2cnc3c(N)ncnc32)[C@H](O)[C@@H]1O	1.96
–	–	–	N=C(N)NCCC[C@@H](NC(=O)[C@@H](CCCNC(=N)N)NC(=O)CCCNC(=O)CCCCCNC(=O)[C@H]1O[C@@H](n2cnc3c(N)ncnc32)[C@H](O)[C@@H]1O)C(N)=O	0.247
–	–	–	N=C(N)NCCC[C@@H](NC(=O)[C@@H](CCCNC(=N)N)NC(=O)CCCCCCCNC(=O)[C@@H](CCCCN)NC(=O)CCCCCNC(=O)[C@H]1O[C@@H](n2cnc3c(N)ncnc32)[C@H](O)[C@@H]1O)C(N)=O	0.0095
–	–	–	NC(=O)CCCNC(=O)OC[C@H]1O[C@@H](n2cnc3c(N)ncnc32)[C@H](O)[C@@H]1O	98.7
–	–	–	NCCCCNC(=O)CCCCCNC(=O)[C@H]1O[C@@H](n2cnc3c(N)ncnc32)[C@H](O)[C@@H]1O	1.64
–	–	–	Nc1ncnc2c1ncn2[C@@H]1O[C@H](C(=O)NCCCCCC(=O)O)[C@@H](O)[C@H]1O	55.8
–	–	–	NCCCNC(=O)CCCCCNC(=O)[C@H]1O[C@@H](n2cnc3c(N)ncnc32)[C@H](O)[C@@H]1O	6.05
2.04	0.0211	0.187	C[C@@H](NC(=O)CCCCCNC(=O)[C@@H]1C[C@@H](O)[C@H](n2cnc3c(N)ncnc32)C1)C(=O)NCCCCCC(=O)N[C@H](CCCNC(=N)N)C(=O)N[C@H](CCCNC(=N)N)C(N)=O	0.0018
–	–	–	NCCCC[C@@H](NC(=O)CCCCCNC(=O)[C@H]1O[C@@H](n2cnc3c(N)ncnc32)[C@H](O)[C@@H]1O)C(=O)NCCCC(=O)N[C@H](CCCN=C(N)N)C(=O)N[C@H](CCCN=C(N)N)C(N)=O	0.0126
3.75	0.097	0.119	C[C@@H](NC(=O)CCCCCNC(=O)[C@H]1O[C@@H](n2cnc3c(N)ncnc32)[C@H](O)[C@@H]1O)C(=O)NCCCCCC(=O)N[C@H](CCCN=C(N)N)C(=O)N[C@H](CCCN=C(N)N)C(N)=O	0.0058
–	–	–	NCCCC[C@@H](NC(=O)CCCCCNC(=O)[C@H]1O[C@@H](n2cnc3c(N)ncnc32)[C@H](O)[C@@H]1O)C(=O)NCCCCCC(=O)N[C@@H](CCCN=C(N)N)C(=O)N[C@@H](CCCN=C(N)N)C(N)=O	0.0087
–	–	–	NC(=O)[C@@H](CCCN=C(N)N)NC(=O)[C@@H](CCCN=C(N)N)NC(=O)CCCCCCCNC(=O)CCCCCNC(=O)[C@H]1O[C@@H](n2cnc3c(N)ncnc32)[C@H](O)[C@@H]1O	0.0954
–	–	–	Nc1ncnc2c1ncn2[C@@H]1O[C@H](C(=O)NCCCCCC(=O)NCCO)[C@@H](O)[C@H]1O	18.7
–	–	–	NC(=O)CCCCCNC(=O)OC[C@H]1O[C@@H](n2cnc3c(N)ncnc32)[C@H](O)[C@@H]1O	52.1
–	–	–	Nc1ncnc2c1ncn2[C@@H]1O[C@H](C(=O)NCCCCCC(=O)NCc2ccccc2)[C@@H](O)[C@H]1O	13.5
–	–	–	NCCNC(=O)CCCCCNC(=O)[C@H]1O[C@@H](n2cnc3c(N)ncnc32)[C@H](O)[C@@H]1O	8.23
–	–	–	NCCCC[C@@H](NC(=O)CCCCCNC(=O)[C@H]1O[C@@H](n2cnc3c(N)ncnc32)[C@H](O)[C@@H]1O)C(N)=O	0.443
0.0566	0.0134	< 0.001	NCCCC[C@@H](NC(=O)CCCCCNC(=O)[C@H]1O[C@@H](n2cnc3c(N)ncnc32)[C@H](O)[C@@H]1O)C(=O)NCCCCCC(=O)N[C@H](CCCN=C(N)N)C(=O)N[C@H](CCCN=C(N)N)C(=O)N[C@H](CCCN=C(N)N)C(=O)N[C@H](CCCN=C(N)N)C(N)=O	0.0005

SMILES	IC50 [1] [µM]	IC50 [2] [µM]	Kd [3] [µM]	Kd [4] [µM]
NC(=O)[C@@H](CCCN=C(N)N)NC(=O)[C@@H](CCCN=C(N)N)NC(=O)CCCCCNC(=O)[C@H]1O[C@@H](n2cnc3c(N)ncnc32)[C@H](O)[C@@H]1O	–	2.6	–	–
NC(=O)CCCCCNC(=O)[C@H]1O[C@@H](n2cnc3c(N)ncnc32)[C@H](O)[C@@H]1O	> 1000	26	4.48	2.18
NC(=O)[C@@H](CCCN=C(N)N)NC(=O)CCCCCNC(=O)[C@H]1O[C@@H](n2cnc3c(N)ncnc32)[C@H](O)[C@@H]1O	1.61	2.1	0.0897	0.249
